Patent US12358931B2, “3-((1R,3s,5S)-3-((7-((5-methyl-1H-pyrazol-3-yl)amino)-1,6-naphthyridin-5-yl)amino)-8-azabicyclo[3.2.1]octan-8-yl) propanenitrile as a JAK kinase inhibitor” (priority 2015, dated 2025)

Columns and labels:
[1] = tested on: mouse splenic NK, B and T cells; assay: Immunosuppression effects in mouse splenic natural killer (NK) cells; format: in vivo, Balb/C mice; conditions: for B and T cell populations: mouse spleen; for B and T cell populations / splenic NK cell counts: PO BID three days; for splenic NK cell counts: Example 1 up to 100 mg/kg, tofacitinib 30 mg/kg
Procedure: Depletion of mouse splenic cells is an experimental model of immunosuppression (Kudlacz et al., Am. J. of Transplantation, 2004, 4, 51-57). […] Adult male Balb/C mice (12-14 weeks of age) from Harlan were used for the study. […] Spleens were harvested 1 or 2 h post last dose and crushed immediately for cell subtype staining. Prior to fixation, fluorophore-labelled antibodies for CD19 (FITC; B cells), CD3e (PE; pan T cells) and DX5 (APC; NK cells) were incubated with splenocyte samples from each animal to allow for simultaneous, multiple subtype % analysis on the flow cytometer. The number of total spleen cells for each animal was measured by Scepter™ 2.0 Handheld Automated Cell Counter. The absolute number of lymphocyte subtype population (e.g., splenic B, T and NK cells) was calculated from the percentage of each subtype times total spleen cells for each animal. A one way ANOVA, with Dunnett's post hoc test, was used to compare the splenic lymphocytes number of the vehicle and test compound groups. The a level was set at p<0.05. Data were presented as the mean±SEM for each group.

[2] = Procedure: A weighed sample was used and the humidity was lowest possible value (close to 0% RH) at the start of the analysis. The DMS analysis consisted of an initial drying step (0% RH) for 120 minutes, followed by two cycles of sorption and desorption with a scan rate of 5% RH/step over the humidity range of 5% RH to 90% RH. The DMS run was performed isothermally at 25° C.
[3] = Solid state stability assessment; format: physicochemical; parameters: unit not given here
Source text: At specific intervals, the contents of a representative sample was removed and analyzed by HPLC for chemical purity and by Karl Fischer for water content.

[4] = First in human study of safety, tolerability and pharmacokinetics in healthy subjects; format: in vivo; conditions: suggested by comparison with other orally administered compounds
Procedure: The compound of Example 1 was evaluated in a double-blinded, randomized, placebo-controlled, single ascending dose (SAD) and multiple ascending dose (MAD) study of safety, tolerability, and pharmacokinetics in healthy subjects. Pharmacokinetic samples were collected up to 72 hours post the final dose in both the SAD study (after the first dose) and MAD study (after 14 days of once-daily dosing). The SAD study enrolled 5 cohorts and the MAD study enrolled 4 cohorts totaling 72 subjects, of which 71 completed the dosing period.
Plasma pharmacokinetic (PK) parameters were determined by non-compartmental analysis using WinNonLin Version 6.4.0 (Pharsight, St Louis, MO). The plasma PK parameter presented here is: • Cmax: maximum concentration in plasma

[5] = tested on: oxazolone-induced colitis; assay: Mouse model of oxazolone-induced colitis; format: in vivo, BALB/C mice; conditions: PO, 1, 3, and/or 10 mg/kg BID
Procedure: Oxazolone-induced colitis is an experimental model that has a histological resemblance to human ulcerative colitis (Heller et al. […], 2002, 17, 629-638). Adult BALB/C mice from Harlan were used in the assay. On day 1, animals were lightly anesthetized with isoflurane and the hairs between the shoulder were carefully removed before oxazolone (4%, 150 μL, 4:1 acetone: olive oil formulation) or vehicle solution was slowly applied for skin sensitization. Seven days after skin sensitization, the mice were fasted overnight, anesthetized with isoflurane inhalation, and a 1 mL syringe equipped with a 3.5-F catheter, filled with oxazolone solution, was inserted carefully about 4 cm into the colon of the mouse. Following insertion, 50 μL of the oxazolone solution (1%, 1:1 ethanol:water formulation) was injected very slowly (over 30 sec using an injection pump) into the colon. […] Two-day post oxazolone intrarectal challenge, the Disease Activity Index (DAI) was assessed by treatment-blinded experimenters for each mouse according to the criteria score: stool consistency score (0, normal; 2, loose; 4, diarrhea), gross bleeding score (0, absence; 2, blood tinged; 4, presence), and weight loss score (0, none; 1, 1%-5%; 2, 5%-10%; 3, 10%-20%; 4, more than 20%); DAI=average of (stool consistency score+gross bleeding score+weight loss score). […]

[6] = Pharmacokinetics in plasma and the GI tract in rats; format: in vivo, Sprague Dawley rats; conditions: oral dosing in preclinical species
Procedure: A test compound was dosed to male Sprague Dawley rats (n=3) as described in Assay 5. […] At all time points, the plasma concentration was below the limit of quantitation of 0.001 μg/mL.

Row | Structure (SMILES) | B and T cell populations [1] | splenic NK cell counts ([1]; mouse) | weight change (gain) on moisture sorption ([2]; 5% to 90% relative humidity, room temperature, listed as Crystalline 3-(1R,3s,5S)-3-((7-((5-methyl-1H-pyrazol-3-yl)amino)-1,6-naphthyrid))) | hygroscopicity ([2]; two cycles of sorption and desorption) | RRT 0.96 ([3]; HPLC peak at RRT 0.96, T = 0) | RRT 0.96 ([3]; HPLC peak at RRT 0.96, T = 1 Month, 40° C./75% RH) | RRT 0.96 ([3]; HPLC peak at RRT 0.96, T = 3 Month, 25° C./60% RH) | RRT 0.96 ([3]; HPLC peak at RRT 0.96, T = 3 Month, 40° C./75% RH) | RRT 1.84 ([3]; HPLC peak at RRT 1.84, T = 0) | RRT 1.84 ([3]; HPLC peak at RRT 1.84, T = 1 Month, 40° C./75% RH) | RRT 1.84 ([3]; HPLC peak at RRT 1.84, T = 3 Month, 25° C./60% RH) | RRT 1.84 ([3]; HPLC peak at RRT 1.84, T = 3 Month, 40° C./75% RH) | oral bioavailability [4] | decrease in DAI score as compared with vehicle treated animals [5] | exposure throughout the gastrointestinal tract versus plasma [6] | effect of immunosuppression ([1]; mouse, same dose required for efficacy in the oxazolone model)
1 | C[C@@H]1CCN(C(=O)CC#N)C[C@@H]1N(C)c1ncnc2[nH]ccc12 [tofacitinib, reference compound] | No treatment effect | dose-dependently and significantly decreased |  |  |  |  |  |  |  |  |  |  |  |  |  | 
2 | Cc1cc(Nc2cc3ncccc3c(N[C@@H]3C[C@H]4CC[C@@H](C3)N4CCC#N)n2)n[nH]1 [Form I, 3-((1R,3s,5S)-3-((7-((5-methyl-1H-pyrazol-3-yl)amino)-1,6-naphthyridin-5-yl)amino)-8-azabicyclo[3.2.1]octan-8-yl)propanenitrile] |  |  | less than 0.15% | non-hygroscopic | 0.07 | 0.07 | 0.07 | 0.07 | 0.08 | 0.08 | 0.05 | 0.05 |  |  |  | 
3 | Cc1cc(Nc2cc3ncccc3c(N[C@@H]3C[C@H]4CC[C@@H](C3)N4CCC#N)n2)n[nH]1 [Example 1, 3-((1R,3s,5S)-3-((7-((5-methyl-1H-pyrazol-3-yl)amino)-1,6-naphthyridin-5-yl)amino)-8-azabicyclo[3.2.1]octan-8-yl)propanenitrile] | No treatment effect | unaffected |  |  |  |  |  |  |  |  |  |  | very low | demonstrated activity | significantly higher exposure | minimal effect
